{"source": "paper PMC12236907", "about": "“A Natural Depsipeptide Antibiotic that Targets the E site of the Bacterial Ribosome” (Research Square, 2025)", "key": {"[1]": {"tested_on": "E. coli S30 extract transcription-translation system", "experiment": "Inhibition of protein synthesis in E. coli cell-free transcription-translation system", "format": "biochemical", "conditions": "E. coli S30 lysate, pBESTluc plasmid, 0.05 to 100 μM, 1 h at 37°C, luminescence; mean ±SD of three technical replicates", "description": "The impact of MKM-A and MKM-E on in vitro protein synthesis was evaluated using the E. coli S30 extract transcription-translation system (Promega) following the manufacturer’s protocol. The pBESTluc plasmid DNA was utilized as the template to produce firefly luciferase. MKM analogues were tested across a concentration range of 0.05 to 100 μM. The reactions were incubated for one hour at 37°C. Luminescence was then measured in opaque 96-well plates using a Synergy Microplate Reader (Biotek). The IC50 values, indicating the concentration at which MKMs inhibited protein synthesis by 50%, were determined using GraphPad Prism 10 software."}, "[2]": {"tested_on": "bacteria with resistance mechanisms to other translation-inhibiting antibiotics", "conditions": "bacterial pathogens; unique site of action in the ribosome"}, "Murine infection model": {"experiment": "Murine infection model", "format": "in vivo", "conditions": "initial attempts"}, "E. coli ribosome": {"tested_on": "E. coli ribosome", "experiment": "In vitro translocation assay", "format": "biochemical", "conditions": "mRNA MFK; 50 μM MKM or 250 μM negamycin; 1 μM E. coli ribosomes", "description": "In vitro translocation assay was carried out using the model mRNA MFK (Supplementary Table 7) as described in the reference. The mRNA was prepared by in vitro transcription of a PCR product amplified using the primers MF_F1, MF_F2, and MF_R (Supplementary Table 6). A 4.5 μl reaction containing 1 μM E. coli ribosomes, 0.5 μM mRNA, 1 μM tRNAi^Met, 0.5 μM radiolabelled NV1 primer (Supplementary Table 6), 2 U/μl RiboLock RNase Inhibitor (Thermo), and antibiotic tested (50 μM MKM or 250 μM negamycin) in Pure System Buffer (PSB; 9 mM Mg(CH3COO)2, 5 mM K3PO4, 95 mM potassium glutamate, 5 mM NH4Cl, 0.5 mM CaCl2, 1 mM spermidine, 8 mM putrescine, 1 mM dithiothreitol, pH 7.3)[87] was incubated for 20 min at 37°C. Then N-acetyl-Phe-N-tRNAPhe, in which amino acid is attached to the tRNA’s A3’ hydroxyl via an amide bond, was added to the final concentration of 2 μM followed by 10 min incubation at 37°C. After addition of the E. coli EF-G and GTP to the final concentrations of 0.2 μM and 533 μM, respectively and incubation for 5 min at 30°C, 1 μl of the mixture of AMV reverse transcriptase (Roche) and dNTPs (2.1 U/μl AMV RT and 2 mM dNTPs in PSB) was added, and the reactions were incubated for another 5 min at 30°C. […]"}, "bacterial membrane": {"tested_on": "bacterial membrane", "experiment": "Membrane permeabilization (propidium iodide uptake and NPN assays)", "format": "cell-based", "conditions": "E. coli BW25113; PI 4 μM up to 10×MIC (80 μg/ml), NPN 10 μM; 30 min, room temperature", "description": "E. coli BW25113 cells were prepared according to the method for time-dependent killing and mixed with propidium iodide at a final concentration of 4 μM. A 190 μl aliquot of the cell suspension was added to the wells of a 96-well black-wall plate, followed by the addition of 10 μl of compounds at different concentrations up to 10×MIC (80 μg/ml). Colistin (5 μg/ml) was included as a positive control. Fluorescence was measured at an excitation/emission wavelength of 535/617 nm for 30 min at room temperature using a Synergy Microplate Reader (Biotek).\nAn overnight culture of E. coli BW25113 was subcultured into fresh MOPS minimal medium and allowed to grow until reaching mid-exponential phase. The culture was then diluted to an OD 600 of 0.1–0.2 in the same medium and supplemented with 10 μM NPN dye (prepared from a 20 mM stock solution in acetone). A volume of 190 μl of this cell suspension was combined with 10 μl of test compounds at various concentrations in a black 96-well plate. Water served as the vehicle control, as MKM-A was dissolved in water (adjust the vehicle accordingly based on the solubility of your compound). Colistin at 5 μg/ml was included as a positive control. Fluorescence was measured over a 30 min period at room temperature using a microplate reader, with readings taken every 0.5–1 min at an excitation/emission wavelength of 350/420 nm."}, "K. pneumoniae C1559": {"tested_on": "K. pneumoniae C1559", "experiment": "Time-dependent killing assay, K. pneumoniae", "format": "cell-based, Klebsiella pneumoniae", "conditions": "K. pneumoniae C1559, MHB, 5×MIC (80 μg/ml), 37°C, 0-24 h; mean of three biological replicates", "description": "E. coli BW25113 and Klebsiella pneumoniae C1559 were grown overnight in 5 ml of cation-adjusted Mueller-Hinton Broth. The cultures were then inoculated into fresh medium to achieve an OD600 of 0.1, corresponding to a concentration of 10^8 CFU/ml. […] Samples were taken at 0 h, 3 h, 6 h, and 24 h post-incubation, plated on MHA plates, and incubated for 20–24 hours at 37°C. Colony counts were used to determine the log reduction in CFU/ml, comparing treated strains to untreated control samples."}, "[3]": {"tested_on": "K. pneumoniae ATCC 33495 and C1559", "experiment": "C. elegans – K. pneumoniae in vivo antibiotic activity assay (survival)", "set-up": "species or system K. pneumoniae in Caenorhabditis elegans", "description": "A C. elegans double mutant strain, AU37 (glp-4(bn2);sek-1(km4)), was used for this assay due to its enhanced pathogen infection sensitivity and temperature-sensitive sterility. The infection protocol was carried out as previously described, with slight modifications to accommodate our experimental conditions. Standard C. elegans media and protocols were used for the maintenance and growth of worms. To summarize, eggs were collected from gravid adult worms by bleaching and incubated on solid agar plates at 25 °C for 48 hours, until early adulthood. Worms were thoroughly washed with M9 buffer and transferred onto LB agar plates containing lawns of infective K. pneumoniae and incubated for another 24 hours. Worms were then washed from plates and resuspended in M9 to an approximate 2 worm per microlitre concentration. A survival assay was conducted in a 96-well plate with experimental wells containing 15 μl of worms, 80 μl S-basal (5.85 g NaCl, 1 g K2HPO4, 6 g KH2PO4, 1 ml cholesterol (5 mg/ml in ethanol), H2O to 1 litre. Sterilize by autoclaving), and 5 μl of test compound. Plates were sealed with a porous film and incubated at 25°C for a total of 7 days. The number of dead worms were counted every 24 hours to generate a Kaplan-Meier survival curve."}}, "note": "“Also recorded” adds a separate entry of the source. Where a SMILES comes first, the peptide text is derived from it. Bridges are numbered along the chain shown (N, C = ends). [ ]: non-standard residue; d: D form. dOrn = NCCC[C@@H](N)C(=O)O"}
{"smiles": "C[C@@H](O)[C@@H]1NC(=O)[C@@H](CCCNC(=N)N)NC(=O)[C@@H](CCCNC(=N)N)NC(=O)[C@@H](CC(N)=O)NC(=O)[C@@H](NC(=O)[C@@H](Cc2ccccc2)NC(=O)[C@@H](CCCN)NC(=O)[C@H](N)CCCNC(=N)N)[C@@H](C)OC(=O)[C@H](Cc2c[nH]cn2)NC1=O", "note": "[MKM, manikomycin A] (H-[dR][dOrn][dF]T[dN][dR][dR]TH; ester 4-C)", "values": [{"measurement": "IC50", "setting": "[1]", "result": 600, "unit": "nM"}, {"measurement": "sensitivity to resistance mechanisms against other translation inhibitors", "setting": "[2]", "result": "insensitive to resistance mechanisms"}, {"measurement": "protective effect in murine infection model", "setting": "Murine infection model", "result": "did not yield a strong protective effect"}, {"measurement": "inhibition of EF-G-dependent translocation", "setting": "E. coli ribosome", "result": "notably inhibited"}, {"measurement": "membrane permeabilization / disruption", "setting": "bacterial membrane", "result": "failed to permeabilize or distrupt the bacterial membrane"}, {"measurement": "time-kill effect", "setting": "K. pneumoniae C1559", "result": "bactericidal"}, {"measurement": "survival benefit in C. elegans (in words)", "setting": "[3]; MKM 64 μg/ml or polymyxin B 25 μg/ml, 6 days, vs DMSO, Log-rank (Mantel–Cox) test", "result": "significantly improved survival; also recorded: markedly improved survival"}, {"measurement": "nematodes alive by day 6", "setting": "[3]; MKM 64 μg/ml, both infection models (ATCC 33495 and C1559), DMSO ~10% (ATCC 33495), ~30% (C1559), n > 60 worms per group", "result": "55–60%"}]}
